“Also recorded” adds a separate entry of the source.

Assay in all cases: Cell survival
What all share (assay type): cell-based

The test system of test [1] is KATOIII cells. As for the experimental part:
(§1) The MTT assay was used to evaluate cell survival in the absence and presence of different compounds. The thiazolyl blue tetrazolium bromide (MTT) was dissolved in phosphate buffered saline (PBS) at a concentration of 5 mg/ml, filtered, and stored at 4° C. About 10,000 cells were seeded into a 96-well plate and cultured in growth medium containing serum. After 24 hours, cells were treated with the indicated concentrations of DPM-1001 or DPM-1003 (0-100 uM) for 2 hrs. Following which 20 μl MTT was added into each well. An ELISA plate reader (Biotek, Winooski, Vermont, USA) was used to measure the optical density at 490 nm.

Test [2] relates to SNU116 cells. How it is done: as §1
In test [3] the test system is SNU1. As for the experimental part: as §1

`COC(=O)CCC(C)C1CCC2C3C(O)CC4CC(NCCCCNCc5ccccn5)CCC4(C)C3CCC12C` (stereo not drawn) [DPM-1001]: the “survival of KATOIII cells” value in test [1] is on record as “inhibited survival; also recorded: inhibitory effect”. The “survival of SNU116 cells” value in test [2] was “inhibited survival; also recorded: inhibitory effect”. In addition, the “survival of SNU1 cells” value in test [3] is listed as “inhibited survival”.

The record behind these values is patent US12178825B2, “Method and compositions for forming a copper-containing complex and uses thereof” (COLD SPRING HARBOR LABORATORY, priority 2017, dated 2024).
